Assay results reported in US20180043017A1, “PHARMACEUTICAL COMPOSITIONS COMPRISING 0.5 MG DOSE OF SYNTHETIC HUMAN PEPTIDES FOR TREATING SYSTEMIC LUPUS ERYTHEMATOSUS” (XTL Biopharmaceuticals Ltd., priority 2016, published 2018).
Read-outs that look alike come from different tables or passages of the source.

Tests used:
[1] = tested on: SLE patients; conditions: in vivo
Description: (§1) The PRELUDE Study was a phase 2, multinational, multicenter, randomized, double-blind, placebo-controlled, multiple-dose, parallel group study to assess the efficacy, tolerability and safety of three doses of subcutaneously injected Edratide in SLE patients.
(§2) The total study treatment duration was 26 weeks. Scheduled visits were performed at screening, baseline and at weeks 4, 8, 12, 16, 20, 24, and 26 (termination). […] Non-compliance with the tapering down scheme was not regarded as a protocol violation. During the entire course of the study it was allowed to increase the steroid prednisolone dose to up to 60 mg. Use of intravascular/intramuscular steroid was considered a protocol violation. […] Edratide and CAPTISOL® pharmacokinetic (PK) profiles were characterized in a small group of patients. PK assessment of CAPTISOL® for all four treatment groups was conducted following the first dose and Weeks 12 and 26 doses. Disease and drug related immunology parameters were tested at baseline and at several time points thereafter.
(§3) The co-primary end-points presented in their hierarchical order below were: • Change from baseline to last observed value (LOV) in SLEDAI 2K score (Landmark Analysis.) • Adjusted Mean SLEDAI 2K (AMS). AMS represents the time weighted average of disease activity as measured by SLEDAI 2K score [area under the curve (AUC) of SLEDAI 2K].
(§4) Secondary End-Points: • BILAG proportion of responders. BILAG responders were defined as: • a. Non Responder (NR)—same BILAG score in Last Observed Value (LOV) as in baseline in all systems or new A or B in at least one system compared to baseline (other systems may improve or deteriorate). • b. […] Change from baseline to LOV • SF-36 (QoL) Physical component Score—Change from Baseline to LOV • Time Weighted Average (TWA) on cumulative steroids dose with p.o. administration.
(§5) Exploratory End-Points: • Primary end-point sensitivity analysis to steroid increase (excluding the observations following steroid increase) • Proportions of Zero SLEDAI Score at LOV • Time to Zero SLEDAI Score • BILAG Total Score—Change from Baseline to LOV
(§6) Flares Analysis: • Time to medicinal flare • Time to new BILAG A or at least two new B's • Time to new BILAG A or at least two new B's (excluding persistent activity) • Steroid dose (PO)—Change from baseline to LOV • PGA—Physician's Global Assessment

[2] = tested on: SLE patients; conditions: cited from earlier work; for incidence of adverse events (AEs): placebo 75%
[3] = tested on: SLE patients; conditions: cited from earlier work
[4] = tested on: peripheral blood lymphocytes (PBL) of SLE patients; conditions: cited from earlier work
[5] = tested on: mice afflicted with spontaneous or experimental SLE; conditions: mouse, in vivo; cited from earlier work
[6] = tested on: SLE patients; experiment: PRELUDE phase 2 study, three doses of subcutaneously injected Edratide, 26 weeks; conditions: for AE incidence: placebo 79.3%; for early withdrawal due to AE: placebo 2.3%
Description: as §1, §2, §3, §4, §5, §6

## CC[C@H](C)[C@H](NC(=O)[C@H](Cc1c[nH]c2ccccc12)NC(=O)[C@H](CO)NC(=O)[C@H](Cc1c[nH]c2ccccc12)NC(=O)[C@H](Cc1ccc(O)cc1)NC(=O)[C@H](Cc1ccc(O)cc1)NC(=O)CN)C(=O)C[C@@H](CCCNC(=N)N)C(=O)N[C@@H](CCC(N)=O)C(=O)N1CCC[C@H]1C(=O)N1CCC[C@H]1C(=O)NCC(=O)N[C@@H](CCCCN)C(=O)NCC(=O)N[C@@H](CCC(=O)O)C(=O)N[C@@H](CCC(=O)O)C(=O)N[C@@H](Cc1c[nH]c2ccccc12)C(=O)N[C@H](C(=O)NCC(=O)O)[C@@H](C)CC (stereo in doubt) [Edratide, H-Gly-Tyr-Tyr-Trp-Ser-Trp-Ile-Arg-Gln-Pro-Pro-Gly-Lys-Gly-Glu-Glu-Trp-Ile-Gly-OH]
[1]
  subjects with herpes simplex: 8 subjects
  subjects with herpes viral infections: 11 subjects
  subjects with herpes zoster: 3 subjects
[2]; 0.5 mg group, Week 4 after dosing, not confirmed as lupus flare
  increase of total SLEDAI-2K score in one subject: 2 to 10 points
[2]; any subject during the study, except one subject in the 0.5 mg group
  change of total SLEDAI-2K score: No noteworthy change
[2]; single sc injection 0.5 mg, % of the subjects
  incidence of adverse events (AEs): 33%
[2]; single sc injection 1 mg
  incidence of adverse events (AEs): 67%
[2]; single sc injection 2.5 mg
  incidence of adverse events (AEs): 80%
[3]; 0.5 mg group
  subjects with increase in total SLEDAI-2K score of 0-3 points: Two
[3]; 2.5 mg group
  subjects with increase in total SLEDAI-2K score of 0-3 points: 2 subjects
[3]; 0.5, 1 or 2.5 mg sc twice weekly for 4 weeks vs placebo
  overall incidence of AEs between all treatment groups: no prominent difference
[3]; all injection site reactions, majority resolved on day of injection
  severity of injection site reactions: mild
[3]; all treatment groups
  subjects reporting AEs during 8-week follow-up period (off-drug): Approximately 50%
[3]; all treatment groups, decreased (improved)
  adjusted mean SLEDAI (AMS) score change, baseline to termination visit: −0.1 to −1.5 points
[3]; any treatment group
  trend in mean group total BILAG score: No trend
[3]; in vivo
  SAE throughout the study: No SAE was reported
  incidence of AEs during 8-week follow-up period (off-drug), active groups vs placebo: no prominent difference
[4]
  proliferative response of PBL of SLE patients to the human anti-DNA 16/6Id mAB: inhibit the proliferative response
[5]
  disease manifestations of mice afflicted with spontaneous or experimental SLE: ameliorate disease manifestations
[6]; 0.5 mg
  Serious Adverse Events (SAEs), number of subjects: 6 subjects
  change in SF-36 mental score compared to placebo: slightly better
  change in SF-36 physical score compared to placebo: opposite trend
  early withdrawal due to AE, number of subjects: 5 subjects
  post hoc analysis on BILAG responders, system improved: improvement mainly in the cutaneous system
  early withdrawal due to AE: 6.0%
[6]; 0.5 mg (84 randomized)
  subjects who prematurely terminated the study: Thirteen
[6]; 0.5 mg group
  deaths during the study: One
[6]; 0.5 mg group, most probably septic shock
  relation of death to study drug as classified by investigators: not related to the study drug
[6]; 0.5 mg weekly
  AE incidence: 82.1%
[6]; 0.5 mg, ITT, LOV vs baseline, placebo 22%, p=0.03
  BILAG substantial responders: 36%
[6]; 0.5 mg, ITT, post hoc, placebo 29%, p=0.039
  subjects with medicinal flare: 17%
[6]; 0.5 mg, ITT, p=0.03
  BILAG substantial response odds ratio (OR) vs placebo: 2.09
[6]; 0.5 mg, ITT, p=0.039
  medicinal flare OR vs placebo: 0.43
[6]; 0.5 mg, no steroids at baseline, placebo 13%, p=0.05
  BILAG substantial responders: 54%
[6]; 0.5 mg, placebo 10.3%
  Serious Adverse Events (SAEs) incidence: 7.1%
[6]; 1.0 mg
  Serious Adverse Events (SAEs), number of subjects: 10 subjects
  early withdrawal due to AE, number of subjects: 3 subjects
  early withdrawal due to AE: 3.4%
[6]; 1.0 mg (87 randomized)
  subjects who prematurely terminated the study: 13 subjects
[6]; 1 mg group
  subjects with zoster: 2 subjects
[6]; 1 mg weekly
  AE incidence: 77%
[6]; 1 mg, lesser extent than 0.5 mg
  proportion of BILAG substantial responders compared to placebo: trend toward increasing the proportion of substantial responders
[6]; 1 mg, p=0.07 without correction for multiple comparison
  BILAG substantial response OR vs placebo: 1.85
[6]; 1.0 mg, placebo 10.3%
  Serious Adverse Events (SAEs) incidence: 11.5%
[6]; 2.5 mg
  Serious Adverse Events (SAEs), number of subjects: 8 subjects
  early withdrawal due to AE, number of subjects: 3 subjects
  early withdrawal due to AE: 3.7%
[6]; 2.5 mg (82 randomized)
  subjects who prematurely terminated the study: 11 subjects
[6]; 2.5 mg weekly
  AE incidence: 75.6%
[6]; 2.5 mg, placebo 10.3%
  Serious Adverse Events (SAEs) incidence: 9.8%
[6]; ITT (FIG. 4), placebo 20%, p=0.058
  cSRI positive responders: 34%
[6]; all Edratide doses, no clear dose response
  safety signal from AEs analysis and additional safety data: no significant safety signal
[6]; any of the active treatment groups
  co-primary endpoints (change in SLEDAI 2K score baseline to LOV; AMS), active groups vs placebo: no differences
[6]; in vivo
  SF-36 mental or physical scores, differences between treatment groups: No clinically or statistically significant differences
  cumulative change in steroid dose throughout the study, differences between treatment groups: No clinically or statistically significant differences
  early terminations due to AEs, Edratide vs placebo: more often
[6]; pooled Edratide group, placebo 10.3%
  SAE incidence: 9.5%
[6]; prednisolone dose <20 mg at baseline, p=0.007
  BILAG substantial response OR vs placebo: 2.75
[6]; prednisolone dose <20 mg at baseline, placebo 19%, p=0.007 (FIG. 2B)
  BILAG substantial responders: 40%
[6]; regardless of treatment
  mean reduction from baseline SLEDAI-2K score: about 35%
[6]; seropositive patients (anti-DNA>30 IU), placebo 26% (FIG. 2C)
  BILAG substantial responders: 46%
[6]; seropositive patients (anti-DNA>30 IU), placebo 68%, p=0.05
  BILAG non-responders: 42%
